The structures appear in SMILES notation. Structures can show the parent of a compound that is named as a salt.

For five compounds, IC50 and inhibition results are on record in patent EP0300397A2, “Hydroxy-, Alkoxy- and Benzyloxy substituted phospholipids, a process for their preparation and their use as medicaments” (HOECHST-ROUSSEL PHARMACEUTICALS INCORPORATED, priority 1987, dated 1989).

For this test, the target named is T1, phospholipase A₂ isolated from rat perotoneum (Rattus norvegicus, UniProt P14423).
T1 construct: Enzyme-containing exudate was aspirated through an abdominal incision; Separation of the enzyme from the exudate was accomplished by centrifugation; from tissue; host or cells: peritoneal exudate of casein-injected male Wistar rats
T1 sequence (P14423 22-146): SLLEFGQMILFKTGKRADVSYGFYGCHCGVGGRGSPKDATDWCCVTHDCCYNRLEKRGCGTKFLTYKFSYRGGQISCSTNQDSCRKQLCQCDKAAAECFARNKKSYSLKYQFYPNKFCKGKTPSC
Description: phospholipase A₂ inhibition, spectrophotometric assay with Thio Pc Substrate (modified Hendrickson et al. procedure). The note with it: for IC50: concentration of inhibitor which reduces enzymatic activity by 50̸%, printed in the column % PLA₂ Inhibition; for inhibition at 100 µM: @ 1.0̸ x 10̸⁻⁴M, read-out: % PLA₂ Inhibition. Type of test: biochemical.
Description: The substrate employed in the modified assay, was 1,2-bis(decanoylthio)-1,2-­dideoxyglycerol-3-phosphocholine (hereinafter "Thio Pc Substrate"). The enzyme utilized in the procedure was phospholipase A₂ isolated from rat perotoneum as follows:
Male Wistar rats weighing 200-300 g a piece were injected interperitoneally at a dosage of 50 ml/kg of body weight (20 g of casein as the sodium salt diluted to 500 ml in distilled water). After a period of 18-24 hours the animals were sacrificed. Thereafter, each animal was injected interperitoneally with 30 ml of an isotonic salt solution to which sodium heparin was added prior to use at a concentration of 5 units/ml. Enzyme-containing exudate was aspirated through an abdominal incision. Separation of the enzyme from the exudate was accomplished by centrifugation.
Pursuant to the assay procedure, Thio Pc Substrate was apportioned into 1.25 mg aliquots. To each aliquot was added 4 ml of 160 mM tris hydrogen chloride buffer (pH 7.5) containing 2mM of calcium chloride and 2mM of sodium taurocholate. The resulting dispersions were vortexed at room temperature to clear solutions. Inhibition activity of the alkylphospholipids of this invention was determined utilizing spectrophotometric samples prepared by the addition of 5 µl of 4,4′-dithiopyridine and 395 ml of buffered Thio Pc substrate to a perincubated dispersion of 50 µl of alkylphospholipid (appropriately diluted in buffer) in 50 µl of enzyme (appropriately diluted in buffer). Absorbence at (0.5 full scale ) was recorded at a chart speed of 2 cm/min on a Gilford Model 250 Spectrophotometer.
The percentage of phospholipase A₂ inhibition was calculated by means of the following formula: [formula] wherein "inhibitor slope" is the slope of the spectrophotometric curve obtained for a given alkylphospholipid-containing sample and 'control slope" is the slope of the spectrophotometric curve obtained for an otherwise identical sample lacking an inhibitor.

The compound `CCCCCCCCCCCCCCCCCC(CCCOP(=O)([O-])OCC[N+](C)(C)C)OCc1ccccc1` (centres unmarked) [4-Hydroxy-N,N,N-trimethyl-9-phenylmethoxy-3,5-dioxa-4-phosphahexacosan-1-aminium, 4-oxide, hydroxide, inner salt monohydrate] showed an IC50 of 84 µM.

Take `CCCCCCCCCCCCCCCC(O)CCCOP(=O)([O-])OCC[N+](C)(C)C` (centres unmarked) [4,9-Dihydroxy-N,N,N-trimethyl-3,5-dioxa-4-phosphatetracosan-1-aminium, hydroxide, inner salt sesquihydrate]: the inhibition at 100 µM came out at 45.6%.

`CCCCCCCCCCCCCCCCC(O)CCCOP(=O)([O-])OCC[N+](C)(C)C` (centres unmarked) [4,9-Dihydroxy-N,N,N-trimethyl-3,5-dioxa-4-phosphopentacosan-1-aminium, 4-oxide, hydroxide, inner salt monohydrate] displayed an IC50 of 95 µM.

For the compound `CCCCCCCCCCCCCCCC(CCCOP(=O)([O-])OCC[N+](C)(C)C)OCc1ccccc1` (centres unmarked) [4-Hydroxy-N,N,N-trimethyl-9-phenylmethoxy-3,5-dioxa-4-phosphatetracosan-1-aminium, 4-oxide, hydroxide, inner salt monohydrate], the inhibition at 100 µM is 41.8%.

The compound `CCN(CC)CCCC(C)Nc1c2ccc(Cl)cc2nc2ccc(OC)cc12` (centres unmarked) [Quinacrine, reference compound] registered an IC50 of 31 µM.
